Results: ChEMBL document CHEMBL4002635, “A novel monoterpenoid indole alkaloid with anticancer activity from Melodinus khasianus” (Bioorg Med Chem Lett, 2017)
pIC50: −log10 of the molar value.

What was measured:
PC-3 [1] = assay: Induction of apoptosis in human PC3 cells assessed as downregulation of Bcl2 protein expression after 48 hrs by Western blot method; type: functional, cell-based
PC-3 [2] = assay: Induction of apoptosis in human PC3 cells assessed as caspase 3A negative cells at 0.1 uM after 24 hrs by flow cytometry (reference value: 97.5%); type: functional
PC-3 [3] = assay: Induction of apoptosis in human PC3 cells assessed as live cells at 10 uM after 24 hrs by Annexin-V FITC/7-AAD staining based flow cytometry (reference value: 98.8%); type: functional
PC-3 [4] = assay: Induction of apoptosis in human PC3 cells assessed as live cells at 0.1 uM after 24 hrs by Annexin-V FITC/7-AAD staining based flow cytometry (reference value: 98.8%); type: functional
PC-3 [5] = assay: Induction of apoptosis in human PC3 cells assessed as increase in active caspase 3A after 24 hrs by flow cytometry; type: functional, cell-based
PC-3 [6] = assay: Induction of apoptosis in human PC3 cells assessed as early apoptotic cells at 0.1 uM after 24 hrs by Annexin-V FITC/7-AAD staining based flow cytometry (reference value: 0.1%); type: functional
PC-3 [7] = assay: Antiproliferative activity against human PC3 cells after 48 hrs by MTT assay; type: functional, cell-based; settings: PC-3, 48 h
PC-3 [8] = assay: Induction of apoptosis in human PC3 cells assessed as early apoptotic cells at 10 uM after 24 hrs by Annexin-V FITC/7-AAD staining based flow cytometry (reference value: 0.1%); type: functional
PC-3 [9] = assay: Induction of apoptosis in human PC3 cells assessed as increase in caspase-3 protein expression after 48 hrs by Western blot method; type: functional, cell-based
PC-3 [10] = assay: Induction of apoptosis in human PC3 cells assessed as necrotic cells at 0.1 uM after 24 hrs by Annexin-V FITC/7-AAD staining based flow cytometry (reference value: 0.02%); type: functional
K562 = assay: Antiproliferative activity against human K562 cells after 48 hrs by MTT assay; type: functional, cell-based; settings: K562, 48 h
MDA-MB-231 = assay: Antiproliferative activity against human MDA-MB-231 cells after 48 hrs by MTT assay; type: functional, cell-based; settings: MDA-MB-231, 48 h
A549 = assay: Antiproliferative activity against human A549 cells after 48 hrs by MTT assay; type: functional, cell-based; settings: A549, 48 h
PC-3 [11] = assay: Induction of apoptosis in human PC3 cells assessed as caspase 3A negative cells at 10 uM after 24 hrs by flow cytometry (reference value: 97.5%); type: functional
PC-3 [12] = assay: Induction of apoptosis in human PC3 cells assessed as caspase 3A positive cells at 10 uM after 24 hrs by flow cytometry (reference value: 2.45%); type: functional
PC-3 [13] = assay: Induction of apoptosis in human PC3 cells assessed as late apoptotic cells at 0.1 uM after 24 hrs by Annexin-V FITC/7-AAD staining based flow cytometry (reference value: 0.31%); type: functional
PC-3 [14] = assay: Induction of apoptosis in human PC3 cells assessed as late apoptotic cells at 1 uM after 24 hrs by Annexin-V FITC/7-AAD staining based flow cytometry (reference value: 0.31%); type: functional
PC-3 [15] = assay: Induction of apoptosis in human PC3 cells assessed as live cells at 1 uM after 24 hrs by Annexin-V FITC/7-AAD staining based flow cytometry (reference value: 98.8%); type: functional
PC-3 [16] = assay: Induction of apoptosis in human PC3 cells assessed as late apoptotic cells at 10 uM after 24 hrs by Annexin-V FITC/7-AAD staining based flow cytometry (reference value: 0.31%); type: functional
PC-3 [17] = assay: Induction of apoptosis in human PC3 cells assessed as increase in p53 protein expression after 48 hrs by Western blot method; type: functional, cell-based
PC-3 [18] = assay: Induction of apoptosis in human PC3 cells assessed as necrotic cells at 10 uM after 24 hrs by Annexin-V FITC/7-AAD staining based flow cytometry (reference value: 0.02%); type: functional
PC-3 [19] = assay: Induction of apoptosis in human PC3 cells assessed as caspase 3A positive cells at 1 uM after 24 hrs by flow cytometry (reference value: 2.45%); type: functional
PC-3 [20] = assay: Induction of apoptosis in human PC3 cells assessed as early apoptotic cells at 1 uM after 24 hrs by Annexin-V FITC/7-AAD staining based flow cytometry (reference value: 0.1%); type: functional
PC-3 [21] = assay: Induction of apoptosis in human PC3 cells assessed as caspase 3A negative cells at 1 uM after 24 hrs by flow cytometry (reference value: 97.5%); type: functional
PC-3 [22] = assay: Induction of apoptosis in human PC3 cells assessed as caspase 3A positive cells at 0.1 uM after 24 hrs by flow cytometry (reference value: 2.45%); type: functional
PC-3 [23] = assay: Induction of apoptosis in human PC3 cells assessed as necrotic cells at 1 uM after 24 hrs by Annexin-V FITC/7-AAD staining based flow cytometry (reference value: 0.02%); type: functional

Which Activity (PC-3 [1]) does the source give for `C/C=C(/CO)[C@H]1C[C@@H]2c3[nH]c4ccccc4c3C[C@H]3N2C(=O)[C@@]13COC` here?
The Activity was “Dose-dependent effect”.

What about the Activity (PC-3 [2]) of the same compound?
Its Activity is 97.1%.

And the Activity (PC-3 [3])?
The Activity was 79.7%.

What about the Activity (PC-3 [4]) of the same compound?
Its Activity is 98.3%.

What about the Activity (PC-3 [5]) of the same compound?
The Activity was “Dose-dependent effect”.

And the Activity (PC-3 [6])?
Its Activity is 0.27%.

What about the pIC50 (PC-3 [7]) of the same compound?
The pIC50 was 6.13.

And the Activity (PC-3 [8])?
The Activity was 6.25%.

And the Activity (PC-3 [9])?
Its Activity is “Dose-dependent effect”.

What about the Activity (PC-3 [10]) of the same compound?
Its Activity is 0.85%.

What about the pIC50 (K562) of the same compound?
Its pIC50 is 5.91.

What about the pIC50 (MDA-MB-231) of the same compound?
Its pIC50 is 5.74.

And the pIC50 (A549)?
Its pIC50 is 5.49.

And the Activity (PC-3 [11])?
Its Activity is 89.1%.

What about the Activity (PC-3 [12]) of the same compound?
Its Activity is 10.9%.

And the Activity (PC-3 [13])?
Its Activity is 0.56%.

What about the Activity (PC-3 [14]) of the same compound?
Its Activity is 1.14%.

What about the Activity (PC-3 [15]) of the same compound?
Its Activity is 97.3%.

What about the Activity (PC-3 [16]) of the same compound?
Its Activity is 8.97%.

What about the Activity (PC-3 [17]) of the same compound?
Its Activity is “Dose-dependent effect”.

And the Activity (PC-3 [18])?
The Activity was 5.05%.

What about the Activity (PC-3 [19]) of the same compound?
Its Activity is 4.1%.

And the Activity (PC-3 [20])?
The Activity was 0.7%.

What about the Activity (PC-3 [21]) of the same compound?
Its Activity is 95.9%.

And the Activity (PC-3 [22])?
Its Activity is 2.89%.

And the Activity (PC-3 [23])?
The Activity was 0.87%.
